Earlier results on one molecule are cited in US11324822B2, “Combination of HDAC inhibitor and anti-PD-1 antibody for treatment of cancer” (priority 2015, dated 2022).

The conditions of series [1]: in vivo.
A further series relates to histone acetylation. To be noted: following the administration of entinostat.

SMILES strings stand for the structures.

Take `Nc1ccccc1NC(=O)c1ccc(CNC(=O)OCc2cccnc2)cc1` [Entinostat, N-(2-aminophenyl)-4-[N-(pyridine-3-yl)methoxycarbonylamino-methyl]-benzamide]: in series [1], the half-life result is listed as “about 100 hours”. Further, the “changes in histone acetylation following administration” value in the series with histone acetylation is given as “persist for several weeks”.
